{
  "source": "patent EP3441078A1",
  "about": "“PHARMACEUTICAL PRODUCT FOR TREATING LUPUS ERY[…] COMBINED IMMUNE DEFECT, AND PREPARATION AND APPLICATION THEREOF” (Beijing Lu De Kai Qi Co., Ltd., priority 2016, dated 2017)",
  "key": {"[1]": {"tested_on": "polychromatic erythrocytes in bone marrow of mice", "details": "50mg/kg•bw, positive control; for Number of Micronuclei(in Ge): 5000 cells inspected; for Permillage of Micronuclei: P<0.01 vs negative control", "procedure": "(§1) The healthy Kunming mice provided by the Experimental Animal Center of the National Institute for the Control of Pharmaceutical and Biological Products were selected.\nThe assay was carried out via oral gavage and the administration was performed twice at intervals of 24 hrs. 50 mice weighing 25-30 g were randomly divided into 5 groups according to body weight, 10 in each group, half male and half female. […] The doses of the anti-lupus erythematosus pharmaceutical product for combined immunization according to the present invention were 2.00, 4.00, and 6.00 g/kg•bw, respectively, which were adjusted to the desired concentration with distilled water. The animals were sacrificed by cervical dislocation six hours after the last administration of the anti-lupus erythematosus pharmaceutical product for combined immunization according to the present invention. The bone marrow of sternum was acquired and diluted with calf serum, smeared, fixed in methanol, and stained with Giemsa. Under the light microscope, 1000 polychromatic erythrocytes (PRC) were measured per animal, and the incidence of micronucleus was determined by the permillage of micronucleus-containing PRC and statistically processed. […] Kunming healthy mice provided by Laboratory Animal Center of National Institutes for Food and Pharmaceutical product Control were selected.\nThe test was carried out by two-time intragastric administration at an interval of 24 hours.50 mice weighing 25-30 g were randomly divided into 5 groups according to their body weight. They were randomly divided into 5 groups according to their body weight, with 10 mice in each group, half male and half female. […] The doses of the anti-lupus erythematosus pharmaceutical product for combined immunization of the present invention were 2.00, 4.00 and 6.00 g/kg•bw respectively, and were mixed with distilled water to the desired concentration. The animals were sacrificed by cervical dislocation 6 hours after the last administration of the anti-lupus erythematosus pharmaceutical product for combined immunization of the present invention. The sternum bone marrow was diluted with calf serum, fixed with methanol, and stained with Giemsa. Under the light microscope, 1000 polychromatic erythrocytes (PRC) were counted per animal, and the incidence of micronuclei was measured by the permillage of micronucleus-containing PRC and statistically processed."}, "[2]": {"tested_on": "sperm abnormality in mice", "details": "male mice, 40mg/kg•bw, positive control", "procedure": "1. […] The walnut extract, wormwood extract, American ginseng extract and shí hú extract were respectively taken, treated in a 70°C water bath for 1 hour, soaked for 12 hours, and concentrated for testing.\nas §1\n50 sexually mature male mice weighing 30-35 g were randomly divided into 5 groups. […] The doses of the anti-lupus erythematosus pharmaceutical product for combined immunization according to the present invention were 2.00, 4.00, and 6.00 g/kg•bw, respectively, and the desired concentration were adjusted with distilled water. The mice were administered via oral gavage once a day for 5 days, and the animals were sacrificed 30 days after the last gavage. The epididymis was acquired and sectioned and stained with eosin. Five animals were counted in each group and 1000 intact sperm were counted per animal. The incidence of sperm abnormality (in percentage) was calculated and statistically processed."}},
  "note": "Where two headings read alike, the source gives them in different places. Marks after values point to notes of the source that are not given here.",
  "data": [
    {"smiles": "O=P1(N(CCCl)CCCl)NCCCO1", "note": "(stereo not drawn) [cp, cyclophosphamide]", "values": [
      {"measurement": "Number of Micronuclei(in Ge)", "setting": "[1]; Female mice", "result": 150},
      {"measurement": "Permillage of Micronuclei", "setting": "[1]; Female mice", "result": "30.0* ‰"},
      {"measurement": "Number of Micronuclei(in Ge)", "setting": "[1]; Male mice", "result": 150},
      {"measurement": "Permillage of Micronuclei", "setting": "[1]; Male mice", "result": "30.0* ‰"},
      {"measurement": "Number of Abnormal Sperms(in Ge)", "setting": "[2]; 5000 sperms inspected", "result": 480},
      {"measurement": "Percentage of Abnormal Sperms", "setting": "[2]; P<0.01 vs negative control", "result": "9.6* %"}
    ]}
  ]
}
